Like-named read-outs stand apart in the source and are kept apart here. Where a SMILES comes first, the peptide text is derived from it. Bridges are numbered along the chain shown (N, C = ends). [ ]: non-standard residue; d: D form. The star is where a group is joined. hPhe(3-Cl-4-CF3) = N[C@@H](CCc1ccc(C(F)(F)F)c(Cl)c1)C(=O)O; NPrPhe(4-CF3) = CCCN[C@@H](Cc1ccc(C(F)(F)F)cc1)C(=O)O; NMePhe(4-Me) = CN[C@@H](Cc1ccc(C)cc1)C(=O)O; NMeGly(cPent) = CN[C@H](C(=O)O)C1CCCC1; NMeD = CN[C@@H](CC(=O)O)C(=O)O; NMeL = CN[C@@H](CC(C)C)C(=O)O; Azetidin(1-yl) = C1CN(*)C1; Morpholide = C1CN(*)CCO1; NMeA = CN[C@@H](C)C(=O)O; Ac5c = NC1(C(=O)O)CCCC1; Aze = O=C(O)[C@@H]1CCN1; Abu = CC[C@H](N)C(=O)O; Sar = CNCC(=O)O
Assays:
[1] = target: GDP-bound HRAS wild-type protein (Homo sapiens, UniProt P01112); experiment: Binding to HRAS by surface plasmon resonance (SPR), Single Cycle Kinetics; settings: SPR, GDP-bound HRAS wild-type protein vs GDP-bound KRAS wild-type protein
[2] = target: GDP-bound NRAS wild-type protein (Homo sapiens, UniProt P01111); experiment: Binding to NRAS by surface plasmon resonance (SPR), Single Cycle Kinetics; settings: SPR, GDP-bound NRAS wild-type protein vs GDP-bound KRAS wild-type protein
[3] = target: GDP-bound KRAS wild-type protein (Homo sapiens, UniProt P01116); experiment: Binding to KRAS by surface plasmon resonance (SPR), Single Cycle Kinetics; settings: GDP-bound KRAS wild-type protein, read-out: KRAS KD
[4] = SPR Single Cycle Kinetics, 1:1 binding model

Sequence of GDP-bound HRAS wild-type protein (P01112 whole entry): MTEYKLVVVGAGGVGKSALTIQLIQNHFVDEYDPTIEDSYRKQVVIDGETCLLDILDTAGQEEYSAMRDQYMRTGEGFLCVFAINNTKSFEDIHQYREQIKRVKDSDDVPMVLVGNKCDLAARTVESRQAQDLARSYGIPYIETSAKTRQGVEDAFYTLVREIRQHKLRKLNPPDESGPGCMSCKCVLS
Sequence of GDP-bound NRAS wild-type protein (P01111 whole entry): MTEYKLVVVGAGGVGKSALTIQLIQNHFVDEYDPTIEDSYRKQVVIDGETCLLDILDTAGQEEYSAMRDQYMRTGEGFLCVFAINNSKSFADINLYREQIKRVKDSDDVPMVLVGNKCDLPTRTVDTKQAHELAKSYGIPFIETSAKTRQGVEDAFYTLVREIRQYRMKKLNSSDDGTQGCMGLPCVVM
Sequence of GDP-bound KRAS wild-type protein (P01116 whole entry): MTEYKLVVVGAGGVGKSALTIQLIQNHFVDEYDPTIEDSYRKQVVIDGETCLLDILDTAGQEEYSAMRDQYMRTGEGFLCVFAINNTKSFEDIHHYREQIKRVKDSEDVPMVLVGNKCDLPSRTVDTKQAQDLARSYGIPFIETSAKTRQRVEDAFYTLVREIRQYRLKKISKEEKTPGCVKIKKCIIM

| SMILES | HRAS/KRAS (ratio of KD value for HRAS to KD value for KRAS) [1] | NRAS/KRAS (ratio of KD value for NRAS to KD value for KRAS) [2] | Kd [3, 4] [pM] | further results |
| --- | --- | --- | --- | --- |
| CC[C@H](C)[C@@H]1NC(=O)[C@H](CC(C)C)N(C)C(=O)C[C@@H](C(=O)N2CCOCC2)N(C)C(=O)[C@H](C2CCCC2)N(C)C(=O)C2(CCCC2)NC(=O)[C@@H]2CCCN2C(=O)[C@H](CCc2ccc(C(F)(F)F)c(Cl)c2)NC(=O)CN(C)C(=O)[C@H](Cc2ccc(C)cc2)N(C)C(=O)[C@@H]2CCN2C(=O)[C@H](C)N(C)C1=O [PP0001] ([NMeL]I[NMeA][Aze][NMePhe(4-Me)][Sar][hPhe(3-Cl-4-CF3)]P[Ac5c][NMeGly(cPent)][NMeD]-Morpholide; lactam N-11) | C (A compound having a KD ratio of 0.1 or more and less than 3 is denoted as C) | C (A compound having a KD ratio of 0.1 or more and less than 3 is denoted as C) | 140 |  |
| CCCN1C(=O)CN(C)C(=O)CN(C)C(=O)[C@H]([C@@H](C)CC)NC(=O)[C@H](CC(C)C)N(C)C(=O)C[C@@H](C(=O)N2CCOCC2)NC(=O)[C@H](C2CCCC2)N(C)C(=O)C2(CCCC2)NC(=O)[C@@H]2CCCN2C(=O)[C@H](CCc2ccc(C(F)(F)F)c(Cl)c2)NC(=O)CN(C)C(=O)[C@@H]1Cc1ccc(C(F)(F)F)cc1 [PP0146] ([NMeL]I[Sar][Sar][NPrPhe(4-CF3)][Sar][hPhe(3-Cl-4-CF3)]P[Ac5c][NMeGly(cPent)]D-Morpholide; lactam N-11) | B (a compound having 3 or more and less than 10 is denoted as B) | B (a compound having 3 or more and less than 10 is denoted as B) | 420 |  |
| CCCN1C(=O)[C@@H]2CCN2C(=O)[C@H](C)N(C)C(=O)[C@H]([C@@H](C)CC)NC(=O)[C@H](CC(C)C)N(C)C(=O)C[C@@H](C(=O)N(C)C)NC(=O)[C@H](C2CCCC2)N(C)C(=O)C2(CCCC2)NC(=O)[C@@H]2CCCN2C(=O)[C@H](CCc2ccc(C(F)(F)F)c(Cl)c2)NC(=O)CN(C)C(=O)[C@@H]1Cc1ccc(C(F)(F)F)cc1 [PP0379] ([NMeL]I[NMeA][Aze][NPrPhe(4-CF3)][Sar][hPhe(3-Cl-4-CF3)]P[Ac5c][NMeGly(cPent)]D-NMe2; lactam N-11) | B (a compound having 3 or more and less than 10 is denoted as B) | C (A compound having a KD ratio of 0.1 or more and less than 3 is denoted as C) | 380 |  |
| CCCN1C(=O)[C@@H]2CCN2C(=O)[C@H](C)N(C)C(=O)[C@H](CC)NC(=O)[C@H](CC(C)C)N(C)C(=O)C[C@@H](C(=O)N2CCOCC2)N(C)C(=O)[C@H](C2CCCC2)N(C)C(=O)C2(CCCC2)NC(=O)[C@@H]2CCCN2C(=O)[C@H](CCc2ccc(C(F)(F)F)c(Cl)c2)NC(=O)CN(C)C(=O)[C@@H]1Cc1ccc(C(F)(F)F)cc1 [PP0269] ([NMeL][Abu][NMeA][Aze][NPrPhe(4-CF3)][Sar][hPhe(3-Cl-4-CF3)]P[Ac5c][NMeGly(cPent)][NMeD]-Morpholide; lactam N-11) | B (a compound having 3 or more and less than 10 is denoted as B) | C (A compound having a KD ratio of 0.1 or more and less than 3 is denoted as C) | 1400 |  |
| CCCN1C(=O)CN(C)C(=O)[C@@H]2CCN2C(=O)[C@H]([C@@H](C)CC)NC(=O)[C@H](CC(C)C)N(C)C(=O)C[C@@H](C(=O)N2CCOCC2)N(C)C(=O)[C@H](C2CCCC2)N(C)C(=O)C2(CCCC2)NC(=O)CN(C)C(=O)[C@H](CCc2ccc(C(F)(F)F)c(Cl)c2)NC(=O)CN(C)C(=O)[C@@H]1Cc1ccc(C(F)(F)F)cc1 [PP0314] ([NMeL]I[Aze][Sar][NPrPhe(4-CF3)][Sar][hPhe(3-Cl-4-CF3)][Sar][Ac5c][NMeGly(cPent)][NMeD]-Morpholide; lactam N-11) | C (A compound having a KD ratio of 0.1 or more and less than 3 is denoted as C) | B (a compound having 3 or more and less than 10 is denoted as B) | 1600 |  |
| CCO[C@@H]1C[C@H]2C(=O)N[C@]3(C)CCCCCC[C@@H](C(=O)N[C@@H]([C@@H](C)CC)C(=O)N(C)CC(=O)N(C)[C@H]4CCCCN(C4=O)[C@@H](Cc4ccc(C(F)(F)F)cc4)C(=O)N(C)CC(=O)N[C@@H](CCc4cc(F)c(C(F)(F)F)c(F)c4)C(=O)N2C1)N(C)C(=O)C[C@@H](C(=O)N1CCOCC1)N(C)C(=O)[C@H](C1CCCC1)N(C)C3=O [PP0992] | B (a compound having 3 or more and less than 10 is denoted as B) | B (a compound having 3 or more and less than 10 is denoted as B) |  | Kd ([3]; SPR, Single Cycle Kinetics): 4600 pM |
| CC[C@H](C)[C@@H]1NC(=O)[C@H](CC(C)C)N(C)C(=O)C[C@@H](C(=O)N2CCOCC2)N(C)C(=O)[C@H](C2CCCC2)N(C)C(=O)C(C)(C)NC(=O)[C@@H]2CCCN2C(=O)[C@H](CCc2cc(F)c(C(F)(F)F)c(F)c2)NC(=O)CN(C)C(=O)[C@H](Cc2ccc(C(F)(F)F)cc2)N2CCCC[C@@H](C2=O)N(C)C(=O)CN(C)C1=O [PP0565] |  |  | 160 | HRAS/KRAS (ratio of KD value with respect to HRAS to KD value with respect to KRAS) [1]: B (a compound having 3 or more and less than 10 is denoted as B); NRAS/KRAS (ratio of KD value with respect to NRAS to KD value with respect to KRAS) [2]: C (A compound having a KD ratio of 0.1 or more and less than 3 is denoted as C) |
| CCC[C@H]1C(=O)N[C@@H]([C@@H](C)CC)C(=O)N2CCC[C@H]2C(=O)N(C)[C@H]2C/C=C\CCN(C2=O)[C@@H](Cc2ccc(C(F)(F)F)cc2)C(=O)N(C)CC(=O)N[C@@H](CCc2ccc(C(F)(F)F)c(OC)c2)C(=O)N2C[C@H](OCC)C[C@H]2C(=O)N(C)C2(CCC2)C(=O)N(C)[C@@H](C2CCCC2)C(=O)N(C)[C@H](C(=O)N(C)C)CC(=O)N1C [PP2320, (1S,4S,10S,13S,17S,20S,26S,28R,32S,38S,42Z)-20-cyclopentyl-28-ethoxy-32-[2-[3-methoxy-4-(trifluoromethyl)phenyl]ethyl]-N,N,2,14,18,21,24,36-octamethyl-10-[(1S)-1-methylpropyl]-3,9,12,15,19,22,25,31,34,37,45-undecaoxo-13-propyl-38-[[4-(trifluoromethyl)phenyl]methyl]spiro[2,8,11,14,18,21,24,30,33,36,39-undecazatetracyclo[37.5.1.0^4,8.0^26,30]pentatetracont-42-ene-23,1′-cyclobutane]-17-carboxamide] | A (a compound having 10 or more and less than 20 is denoted as A) | A (a compound having 10 or more and less than 20 is denoted as A) |  | Kd ([3]; SPR, Single Cycle Kinetics): 110 pM |
| CCO[C@@H]1C[C@H]2C(=O)NC3(CCC3)C(=O)N(C)[C@@H](C3CCCC3)C(=O)N(C)[C@H](C(=O)N(C)CCOC)CC(=O)N(C)[C@@H](CC)C(=O)N[C@@H]([C@@H](C)CC)C(=O)N(C)CC(=O)N(C)[C@H]3C/C=C\CCN(C3=O)[C@@H](Cc3ccc(C(F)(F)F)cc3)C(=O)N(C)CC(=O)N[C@@H](CCc3cc(F)c(C(F)(F)F)c(F)c3)C(=O)N2C1 [PP1316, (2S,8S,12R,14S,20S,23S,27S,30S,36S,38Z)-20-cyclopentyl-8-[2-[3,5-difluoro-4-(trifluoromethyl)phenyl]ethyl]-12-ethoxy-27-ethyl-N-(2-methoxyethyl)-N,4,19,22,26,32,35-heptamethyl-30-[(1S)-1-methylpropyl]-3,6,9,15,18,21,25,28,31,34,42-undecaoxo-2-[[4-(trifluoromethyl)phenyl]methyl]spiro[1,4,7,10,16,19,22,26,29,32,35-undecazatricyclo[34.5.1.0^10,14]dotetracont-38-ene-17,1′-cyclobutane]-23-carboxamide] |  |  |  | HRAS/KRAS (ratio of KD value for HRAS to KD value for KRAS) ([1]; KD ratio class): A (a compound having 10 or more and less than 20 is denoted as A); NRAS/KRAS (ratio of KD value for NRAS to KD value for KRAS) ([2]; KD ratio class): A (a compound having 10 or more and less than 20 is denoted as A); Kd ([3]; SPR, Single Cycle Kinetics, 1:1 binding model): 72 pM |
| CCCN1C(=O)CN(C)C(=O)CN(C)C(=O)[C@H]([C@@H](C)CC)NC(=O)[C@H](CC(C)C)N(C)C(=O)C[C@@H](C(=O)N2CCC2)N(C)C(=O)[C@H](C2CCCC2)N(C)C(=O)C2(CCCC2)NC(=O)[C@@H]2CCCN2C(=O)[C@H](CCc2ccc(C(F)(F)F)c(Cl)c2)NC(=O)CN(C)C(=O)[C@@H]1Cc1ccc(C(F)(F)F)cc1 [PP0172] ([NMeL]I[Sar][Sar][NPrPhe(4-CF3)][Sar][hPhe(3-Cl-4-CF3)]P[Ac5c][NMeGly(cPent)][NMeD]-{Azetidin(1-yl)}; lactam N-11) | C (A compound having a KD ratio of 0.1 or more and less than 3 is denoted as C) | B (a compound having 3 or more and less than 10 is denoted as B) | 130 |  |
| CCO[C@@H]1C[C@H]2C(=O)NC3(CCC3)C(=O)N(C)[C@@H](C3CCCC3)C(=O)N(C)[C@H](C(=O)N(C)C)CC(=O)N(C)[C@@H](CCC(=O)N(C)C)C(=O)N[C@@H]([C@@H](C)CC)C(=O)N(C)CC(=O)N(C)[C@H]3C/C=C\CCN(C3=O)[C@@H](Cc3ccc(C(F)(F)F)cc3)C(=O)N(C)CC(=O)N[C@@H](CCc3cc(F)c(C(F)(F)F)c(F)c3)C(=O)N2C1 [PP1122] | B (a compound having 3 or more and less than 10 is denoted as B) | A (a compound having 10 or more and less than 20 is denoted as A) |  | Kd ([3]; SPR, Single Cycle Kinetics): 47 pM |
